Test results: patent publication US8735584B2 (Merck Patent GmbH, priority 2008, dated 2014)

Target: T1, GST-Aurora A (Homo sapiens, UniProt O14965)
T1 construct: N-terminal GST fusion with full length Aurora A (1-403 amino acids); purchased Carna Biosciences 05-101
T1 sequence (O14965 1-403): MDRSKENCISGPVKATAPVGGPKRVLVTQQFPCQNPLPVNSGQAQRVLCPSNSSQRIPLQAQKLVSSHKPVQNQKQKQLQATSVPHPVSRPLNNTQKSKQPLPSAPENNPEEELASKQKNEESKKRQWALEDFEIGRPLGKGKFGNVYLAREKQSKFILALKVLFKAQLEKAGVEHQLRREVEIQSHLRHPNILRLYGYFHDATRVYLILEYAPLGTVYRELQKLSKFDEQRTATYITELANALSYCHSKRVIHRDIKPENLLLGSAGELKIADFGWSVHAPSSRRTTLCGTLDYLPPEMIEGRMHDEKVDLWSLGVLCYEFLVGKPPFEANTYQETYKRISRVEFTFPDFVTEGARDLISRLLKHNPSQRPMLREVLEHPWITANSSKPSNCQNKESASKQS
Assay: Aurora A IC50, Caliper LC3000 mobility shift assay
Type: biochemical
Conditions: LC3000 method; 15 uM ATP (the KM value); read-out: Aurora Kinase A Activity (IC50)
Method in brief: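 Readout: percent conversion of FITC-LRRASLG (1 uM) to phosphopeptide, resolved electrophoretically on a Caliper LC3000, fitted against inhibitor concentration for IC50. Reaction: N-terminal GST full-length Aurora A, ATP at its KM (15 uM), pH 7.5 HEPES with MgCl2/DTT, 25 C for 90 min.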

O=C(Nc1ccc(Nc2ccnc3[nH]c(=O)c4ccccc4c23)cc1)C1CCCCC1 [Compound 386, Cyclohexanecarboxylic acid-[4-(6-oxo-5,6-dihydro-benzo[c][1,8]naphthyridin-1-ylamino)-phenyl]-amide]
IC50: < 11 nM

O=C(Nc1ccc(Nc2ccnc3[nH]c(=O)c4ccccc4c23)cc1)c1cccc(C(F)(F)F)c1F [Compound 387, 2-Fluoro-N-[4-(6-oxo-5,6-dihydro-benzo[c][1,8]naphthyridin-1-ylamino)-phenyl]-3-trifluoromethyl-benzamide]
IC50: < 11 nM

O=C(Nc1ccc(Nc2ccnc3[nH]c(=O)c4ccccc4c23)cc1)c1c(F)cccc1F [Compound 388, 2,6-Difluoro-N-[4-(6-oxo-5,6-dihydro-benzo[c][1,8]naphthyridin-1-ylamino)-phenyl]-benzamide]
IC50: < 11 nM

O=C(Nc1ccc(Nc2ccnc3[nH]c(=O)c4ccccc4c23)cc1)c1ccc(Cl)cc1 [Compound 389, 4-Chloro-N-[4-(6-oxo-5,6-dihydro-benzo[c][1,8]naphthyridin-1-ylamino)-phenyl]-benzamide]
IC50: < 11 nM

O=C(Nc1ccc(Nc2ccnc3[nH]c(=O)c4ccccc4c23)cc1)c1cc(Cl)cc(Cl)c1 [Compound 390, 3,5-Dichloro-N-[4-(6-oxo-5,6-dihydro-benzo[c][1,8]naphthyridin-1-ylamino)-phenyl]-benzamide]
IC50: < 11 nM

O=C(Nc1ccc(Nc2ccnc3[nH]c(=O)c4ccccc4c23)cc1)c1ccc(F)cc1F [Compound 391, 2,4-Difluoro-N-[4-(6-oxo-5,6-dihydro-benzo[c][1,8]naphthyridin-1-ylamino)-phenyl]-benzamide]
IC50: < 11 nM

O=C(Nc1ccccc1Nc1ccnc2[nH]c(=O)c3ccccc3c12)c1ccccc1 [Compound 392, N-[2-(6-Oxo-5,6-dihydro-benzo[c][1,8]naphthyridin-1-ylamino)-phenyl]-benzamide]
IC50: > 100 nM

O=C(Nc1ccc(Nc2ccnc3[nH]c(=O)c4ccccc4c23)cc1)c1cccc(Cl)c1 [Compound 393, 3-Chloro-N-[4-(6-oxo-5,6-dihydro-benzo[c][1,8]naphthyridin-1-ylamino)-phenyl]-benzamide]
IC50: < 11 nM

Cc1ccc(C(=O)Nc2ccc(Nc3ccnc4[nH]c(=O)c5ccccc5c34)cc2)cc1 [Compound 394, 4-Methyl-N-[4-(6-oxo-5,6-dihydro-benzo[c][1,8]naphthyridin-1-ylamino)-phenyl]-benzamide]
IC50: < 11 nM

O=C(Nc1ccc(Nc2ccnc3[nH]c(=O)c4ccccc4c23)cc1)c1c(Cl)cccc1Cl [Compound 395, 2,6-Dichloro-N-[4-(6-oxo-5,6-dihydro-benzo[c][1,8]naphthyridin-1-ylamino)-phenyl]-benzamide]
IC50: < 11 nM

O=C(Nc1ccc(Nc2ccnc3[nH]c(=O)c4ccccc4c23)cc1)c1cc(F)cc(C(F)(F)F)c1 [Compound 396, 3-Fluoro-N-[4-(6-oxo-5,6-dihydro-benzo[c][1,8]naphthyridin-1-ylamino)-phenyl]-5-trifluoromethyl-benzamide]
IC50: < 11 nM

O=C(Nc1ccc(Nc2ccnc3[nH]c(=O)c4ccccc4c23)cc1)c1ccc(C(F)(F)F)cc1F [Compound 397, 2-Fluoro-N-[4-(6-oxo-5,6-dihydro-benzo[c][1,8]naphthyridin-1-ylamino)-phenyl]-4-trifluoromethyl-benzamide]
IC50: < 11 nM

O=C(Nc1ccc(Nc2ccnc3[nH]c(=O)c4ccccc4c23)cc1)c1ccc(Cl)c(Cl)c1 [Compound 398, 3,4-Dichloro-N-[4-(6-oxo-5,6-dihydro-benzo[c][1,8]naphthyridin-1-ylamino)-phenyl]-benzamide]
IC50: < 11 nM

O=C(Nc1ccc(Nc2ccnc3[nH]c(=O)c4ccccc4c23)cc1)c1ccc(Cl)cc1Cl [Compound 399, 2,4-Dichloro-N-[4-(6-oxo-5,6-dihydro-benzo[c][1,8]naphthyridin-1-ylamino)-phenyl]-benzamide]
IC50: < 11 nM

O=C(Nc1ccc(Nc2ccnc3[nH]c(=O)c4ccccc4c23)cc1)c1cc(C(F)(F)F)cc(C(F)(F)F)c1 [Compound 400, N-[4-(6-Oxo-5,6-dihydro-benzo[c][1,8]naphthyridin-1-ylamino)-phenyl]-3,5-bis-trifluoromethyl-benzamide]
IC50: 11 to 100 nM

O=C(Nc1ccc(Nc2ccnc3[nH]c(=O)c4ccccc4c23)cc1)c1ccc(OC(F)(F)F)cc1 [Compound 401, N-[4-(6-Oxo-5,6-dihydro-benzo[c][1,8]naphthyridin-1-ylamino)-phenyl]-4-trifluoromethoxy-benzamide]
IC50: 11 to 100 nM

O=C(NC1CCC(Nc2ccnc3[nH]c(=O)c4ccccc4c23)CC1)c1ccc(F)c(F)c1 (stereo not drawn) [Compound 402, 3,4-Difluoro-N-[4-(6-oxo-5,6-dihydro-benzo[c][1,8]naphthyridin-1-ylamino)-cyclohexy]-benzamide]
IC50: 11 to 100 nM

O=C(Nc1ccc(Nc2ccnc3[nH]c(=O)c4ccc(C(F)(F)F)cc4c23)cc1)c1ccccc1 [Compound 403, N-[4-(9-Trifluoromethyl-6-oxo-5,6-dihydro-benzo[c][1,8]naphthyridin-1-ylamino)-phenyl]-benzamide]
IC50: < 11 nM

O=C(Nc1ccc(Nc2ccnc3[nH]c(=O)c4ccc(C(F)(F)F)cc4c23)cc1)c1ccc(F)cc1C(F)(F)F [Compound 404, 4-Fluoro-N-[4-(9-trifluoromethyl-6-oxo-5,6-dihydro-benzo[c][1,8]naphthyridin-1-ylamino)-phenyl]-2-trifluoromethyl-benzamide]
IC50: < 11 nM

O=C(Nc1ccc(Oc2ccnc3[nH]c(=O)c4ccccc4c23)cc1)c1ccccc1 [Compound 405, N-[4-(6-Oxo-5,6-dihydro-benzo[c][1,8]naphthyridin-1-yloxy)-phenyl]-benzamide]
IC50: 11 to 100 nM

O=C(c1ccc(F)c(F)c1)N1CCC(CNc2ccnc3[nH]c(=O)c4ccccc4c23)CC1 [Compound 408, 1-{[1-(3,4-Difluoro-benzoyl)-piperidin-4-ylmethyl]-amino}-5H-benzo[c][1,8]naphthyridin-6-one]
IC50: > 100 nM

COc1cc2c(=O)[nH]c3nccc(Nc4ccc(NC(=O)c5ccccc5)cc4)c3c2cc1OC [Compound 409, N-[4-(8,9-Dimethoxy-6-oxo-5,6-dihydro-benzo[c][1,8]naphthyridin-1-ylamino)-phenyl]-benzamide]
IC50: < 11 nM

O=C(Nc1ccc(Nc2ccnc3[nH]c(=O)c4ccc(F)cc4c23)cc1)c1ccccc1 [Compound 412, N-[4-(9-Fluoro-6-oxo-5,6-dihydro-benzo[c][1,8]naphthyridin-1-ylamino)-phenyl]-benzamide]
IC50: < 11 nM

O=C(Nc1ccc(Nc2ccnc3[nH]c(=O)c4ccc(F)cc4c23)cc1)c1ccc(F)cc1C(F)(F)F [Compound 413, 4-Fluoro-N-[4-(9-fluoro-6-oxo-5,6-dihydro-benzo[c][1,8]naphthyridin-1-ylamino)-phenyl]-2-trifluoromethyl-benzamide]
IC50: < 11 nM

O=C(Nc1ccc(Nc2ccnc3[nH]c(=O)c4cc(F)ccc4c23)cc1)c1ccc(F)cc1C(F)(F)F [Compound 414, 4-Fluoro-N-[4-(8-fluoro-6-oxo-5,6-dihydro-benzo[c][1,8]naphthyridin-1-ylamino)-phenyl]-2-trifluoromethyl-benzamide]
IC50: < 11 nM

O=C(Nc1ccc(Nc2ccnc3[nH]c(=O)c4cc(Cl)ccc4c23)cc1)c1ccc(F)cc1C(F)(F)F [Compound 415, 4-Fluoro-N-[4-(8-chloro-6-oxo-5,6-dihydro-benzo[c][1,8]naphthyridin-1-ylamino)-phenyl]-2-trifluoromethyl-benzamide]
IC50: < 11 nM

COc1cc2c(=O)[nH]c3nccc(Nc4ccc(NC(=O)c5ccc(F)cc5C(F)(F)F)cc4)c3c2cc1OC [Compound 416, 4-Fluoro-N-[4-(8,9-dimethoxy-6-oxo-5,6-dihydro-benzo[c][1,8]naphthyridin-1-ylamino)-phenyl]-2-trifluoromethyl-benzamide]
IC50: < 11 nM

O=C(Nc1ccc(Nc2ccnc3[nH]c(=O)c4ccc(F)cc4c23)cc1)c1ccc(F)c(F)c1 [Compound 417, 3,4-Difluoro-N-[4-(9-fluoro-6-oxo-5,6-dihydro-benzo[c][1,8]naphthyridin-1-ylamino)-phenyl]-benzamide]
IC50: < 11 nM

O=C(Nc1ccc(Nc2ccnc3[nH]c(=O)c4ccc(F)cc4c23)cc1)c1cccc(F)c1F [Compound 418, 2,3-Difluoro-N-[4-(9-fluoro-6-oxo-5,6-dihydro-benzo[c][1,8]naphthyridin-1-ylamino)-phenyl]-benzamide]
IC50: < 11 nM

O=C(Nc1ccc(Nc2ccnc3[nH]c(=O)c4ccc(F)cc4c23)cc1)c1ccc(F)cc1 [Compound 419, 4-Fluoro-N-[4-(9-fluoro-6-oxo-5,6-dihydro-benzo[c][1,8]naphthyridin-1-ylamino)-phenyl]-benzamide]
IC50: < 11 nM

O=C(Nc1ccc(Nc2ccnc3[nH]c(=O)c4ccc(F)cc4c23)c(F)c1)c1ccc(F)cc1C(F)(F)F [Compound 420, 4-Fluoro-N-[3-fluoro-4-(9-fluoro-6-oxo-5,6-dihydro-benzo[c][1,8]naphthyridin-1-ylamino)-phenyl]-2-trifluoromethyl-benzamide]
IC50: < 11 nM

O=C(Cn1cc(Nc2ccnc3[nH]c(=O)c4ccc(F)cc4c23)cn1)Nc1ccc(F)cc1 [Compound 421]
IC50: 11 to 100 nM

O=C(Cn1cc(Nc2ccnc3[nH]c(=O)c4ccc(F)cc4c23)cn1)Nc1ccc(C(F)(F)F)cc1 [Compound 422]
IC50: 11 to 100 nM
